# The NIST ThermoML archive (doi:10.1016/j.jct.2005.06.011)
# ± gives the expanded uncertainty stated by the source.
# How the values were obtained:
# [1] = refractive index (Na D-line) (dimensionless); xn = mol fraction of the nth substance listed; details: 101 kPa, Liquid
# [2] = xn = mol fraction of the nth substance listed; details: 101 kPa, Liquid; for speed of sound: Linear variable-path acoustic interferometer
smiles,measurement,setting,value
CCO [ethanol] + CC1CCCCC1,refractive index,"[1]; 298.15 K, x2 = 0",1.3608 ± 0.0012
same,refractive index,"[1]; 303.15 K, x2 = 0",1.3589 ± 0.0012
same,refractive index,"[1]; 308.15 K, x2 = 0",1.3563 ± 0.0012
same,speed of sound,"[2]; 298.15 K, x2 = 0",1161 ± 4 m/s
same,mass density,"[2]; 298.15 K, x2 = 0",785.66 ± 7.9 kg/m3
same,viscosity,"[2]; 298.15 K, x2 = 0",1.083 ± 0.013 mPa·s
same,mass density,"[2]; 303.15 K, x2 = 0",781.34 ± 7.8 kg/m3
same,viscosity,"[2]; 303.15 K, x2 = 0",0.985 ± 0.012 mPa·s
same,mass density,"[2]; 308.15 K, x2 = 0",776.99 ± 7.8 kg/m3
same,viscosity,"[2]; 308.15 K, x2 = 0",0.8954 ± 0.011 mPa·s
CC1CCCCC1 [methylcyclohexane] + CC(C)CCO,refractive index,"[1]; 298.15 K, x1 = 1",1.4217 ± 0.0013
same,refractive index,"[1]; 303.15 K, x1 = 1",1.4192 ± 0.0013
same,refractive index,"[1]; 308.15 K, x1 = 1",1.4163 ± 0.0013
same,speed of sound,"[2]; 298.15 K, x1 = 1",1217 ± 4 m/s
same,mass density,"[2]; 298.15 K, x1 = 1",764.99 ± 7.7 kg/m3
same,viscosity,"[2]; 298.15 K, x1 = 1",0.6757 ± 0.0095 mPa·s
same,mass density,"[2]; 303.15 K, x1 = 1",760.66 ± 7.6 kg/m3
same,viscosity,"[2]; 303.15 K, x1 = 1",0.631 ± 0.0089 mPa·s
same,mass density,"[2]; 308.15 K, x1 = 1",756.3 ± 7.6 kg/m3
same,viscosity,"[2]; 308.15 K, x1 = 1",0.5902 ± 0.0085 mPa·s
CC1CCCCC1 [methylcyclohexane] + CC(C)CO,refractive index,"[1]; 298.15 K, x1 = 0.1003",1.397 ± 0.0013
same,refractive index,"[1]; 298.15 K, x1 = 0.2006",1.4 ± 0.0013
same,refractive index,"[1]; 298.15 K, x1 = 0.3008",1.4031 ± 0.0013
same,refractive index,"[1]; 298.15 K, x1 = 0.4037",1.4059 ± 0.0013
same,refractive index,"[1]; 298.15 K, x1 = 0.5066",1.4088 ± 0.0013
same,refractive index,"[1]; 298.15 K, x1 = 0.6052",1.4114 ± 0.0013
same,refractive index,"[1]; 298.15 K, x1 = 0.7038",1.4141 ± 0.0013
same,refractive index,"[1]; 298.15 K, x1 = 0.8025",1.4167 ± 0.0013
same,refractive index,"[1]; 298.15 K, x1 = 0.9011",1.4194 ± 0.0013
same,refractive index,"[1]; 298.15 K, x1 = 1",1.4217 ± 0.0013
same,refractive index,"[1]; 303.15 K, x1 = 0.1003",1.3945 ± 0.0013
same,refractive index,"[1]; 303.15 K, x1 = 0.2006",1.3975 ± 0.0013
same,refractive index,"[1]; 303.15 K, x1 = 0.3008",1.4005 ± 0.0013
same,refractive index,"[1]; 303.15 K, x1 = 0.4037",1.4033 ± 0.0013
same,refractive index,"[1]; 303.15 K, x1 = 0.5066",1.4061 ± 0.0013
same,refractive index,"[1]; 303.15 K, x1 = 0.6052",1.4088 ± 0.0013
same,refractive index,"[1]; 303.15 K, x1 = 0.7038",1.4115 ± 0.0013
same,refractive index,"[1]; 303.15 K, x1 = 0.8025",1.414 ± 0.0013
same,refractive index,"[1]; 303.15 K, x1 = 0.9011",1.4165 ± 0.0013
same,refractive index,"[1]; 303.15 K, x1 = 1",1.4192 ± 0.0013
same,refractive index,"[1]; 308.15 K, x1 = 0.1003",1.392 ± 0.0013
same,refractive index,"[1]; 308.15 K, x1 = 0.2006",1.395 ± 0.0013
same,refractive index,"[1]; 308.15 K, x1 = 0.3008",1.3979 ± 0.0013
same,refractive index,"[1]; 308.15 K, x1 = 0.4037",1.4007 ± 0.0013
same,refractive index,"[1]; 308.15 K, x1 = 0.5066",1.4034 ± 0.0013
same,refractive index,"[1]; 308.15 K, x1 = 0.6052",1.4062 ± 0.0013
same,refractive index,"[1]; 308.15 K, x1 = 0.7038",1.409 ± 0.0013
same,refractive index,"[1]; 308.15 K, x1 = 0.8025",1.4113 ± 0.0013
same,refractive index,"[1]; 308.15 K, x1 = 0.9011",1.4135 ± 0.0013
same,refractive index,"[1]; 308.15 K, x1 = 1",1.4163 ± 0.0013
same,speed of sound,"[2]; 298.15 K, x1 = 0.1003",1175 ± 4 m/s
same,speed of sound,"[2]; 298.15 K, x1 = 0.2006",1179 ± 4 m/s
same,speed of sound,"[2]; 298.15 K, x1 = 0.3008",1183 ± 4 m/s
same,speed of sound,"[2]; 298.15 K, x1 = 0.4037",1188 ± 4 m/s
same,speed of sound,"[2]; 298.15 K, x1 = 0.5066",1193 ± 4 m/s
same,speed of sound,"[2]; 298.15 K, x1 = 0.6052",1198 ± 4 m/s
same,speed of sound,"[2]; 298.15 K, x1 = 0.7038",1202 ± 4 m/s
same,speed of sound,"[2]; 298.15 K, x1 = 0.8025",1207 ± 4 m/s
same,speed of sound,"[2]; 298.15 K, x1 = 0.9011",1212 ± 4 m/s
same,speed of sound,"[2]; 298.15 K, x1 = 1",1217 ± 4 m/s
same,mass density,"[2]; 298.15 K, x1 = 0.1003",802.66 ± 8.1 kg/m3
same,viscosity,"[2]; 298.15 K, x1 = 0.1003",2.499 ± 0.031 mPa·s
same,mass density,"[2]; 298.15 K, x1 = 0.2006",796.44 ± 8 kg/m3
same,viscosity,"[2]; 298.15 K, x1 = 0.2006",2.037 ± 0.025 mPa·s
same,mass density,"[2]; 298.15 K, x1 = 0.3008",790.71 ± 7.9 kg/m3
same,viscosity,"[2]; 298.15 K, x1 = 0.3008",1.63 ± 0.021 mPa·s
same,mass density,"[2]; 298.15 K, x1 = 0.4037",785.47 ± 7.9 kg/m3
same,viscosity,"[2]; 298.15 K, x1 = 0.4037",1.359 ± 0.018 mPa·s
same,mass density,"[2]; 298.15 K, x1 = 0.5066",780.72 ± 7.8 kg/m3
same,viscosity,"[2]; 298.15 K, x1 = 0.5066",1.12 ± 0.015 mPa·s
same,mass density,"[2]; 298.15 K, x1 = 0.6052",776.53 ± 7.8 kg/m3
same,viscosity,"[2]; 298.15 K, x1 = 0.6052",0.9911 ± 0.013 mPa·s
same,mass density,"[2]; 298.15 K, x1 = 0.7038",772.84 ± 7.8 kg/m3
same,viscosity,"[2]; 298.15 K, x1 = 0.7038",0.8637 ± 0.012 mPa·s
same,mass density,"[2]; 298.15 K, x1 = 0.8025",769.44 ± 7.7 kg/m3
same,viscosity,"[2]; 298.15 K, x1 = 0.8025",0.7897 ± 0.011 mPa·s
same,mass density,"[2]; 298.15 K, x1 = 0.9011",766.63 ± 7.7 kg/m3
same,viscosity,"[2]; 298.15 K, x1 = 0.9011",0.7162 ± 0.01 mPa·s
same,mass density,"[2]; 298.15 K, x1 = 1",764.99 ± 7.7 kg/m3
same,viscosity,"[2]; 298.15 K, x1 = 1",0.6757 ± 0.0095 mPa·s
same,mass density,"[2]; 303.15 K, x1 = 0.1003",798.47 ± 8 kg/m3
same,viscosity,"[2]; 303.15 K, x1 = 0.1003",2.17 ± 0.027 mPa·s
same,mass density,"[2]; 303.15 K, x1 = 0.2006",792.18 ± 7.9 kg/m3
same,viscosity,"[2]; 303.15 K, x1 = 0.2006",1.79 ± 0.023 mPa·s
same,mass density,"[2]; 303.15 K, x1 = 0.3008",786.35 ± 7.9 kg/m3
same,viscosity,"[2]; 303.15 K, x1 = 0.3008",1.44 ± 0.018 mPa·s
same,mass density,"[2]; 303.15 K, x1 = 0.4037",781.09 ± 7.8 kg/m3
same,viscosity,"[2]; 303.15 K, x1 = 0.4037",1.209 ± 0.016 mPa·s
same,mass density,"[2]; 303.15 K, x1 = 0.5066",776.29 ± 7.8 kg/m3
same,viscosity,"[2]; 303.15 K, x1 = 0.5066",1.017 ± 0.013 mPa·s
same,mass density,"[2]; 303.15 K, x1 = 0.6052",772.08 ± 7.7 kg/m3
same,viscosity,"[2]; 303.15 K, x1 = 0.6052",0.906 ± 0.012 mPa·s
same,mass density,"[2]; 303.15 K, x1 = 0.7038",768.37 ± 7.7 kg/m3
same,viscosity,"[2]; 303.15 K, x1 = 0.7038",0.7964 ± 0.011 mPa·s
same,mass density,"[2]; 303.15 K, x1 = 0.8025",764.99 ± 7.7 kg/m3
same,viscosity,"[2]; 303.15 K, x1 = 0.8025",0.7317 ± 0.01 mPa·s
same,mass density,"[2]; 303.15 K, x1 = 0.9011",762.18 ± 7.7 kg/m3
same,viscosity,"[2]; 303.15 K, x1 = 0.9011",0.6676 ± 0.0094 mPa·s
same,mass density,"[2]; 303.15 K, x1 = 1",760.66 ± 7.6 kg/m3
same,viscosity,"[2]; 303.15 K, x1 = 1",0.631 ± 0.0089 mPa·s
same,mass density,"[2]; 308.15 K, x1 = 0.1003",794.29 ± 8 kg/m3
same,viscosity,"[2]; 308.15 K, x1 = 0.1003",1.841 ± 0.023 mPa·s
same,mass density,"[2]; 308.15 K, x1 = 0.2006",787.91 ± 7.9 kg/m3
same,viscosity,"[2]; 308.15 K, x1 = 0.2006",1.542 ± 0.02 mPa·s
same,mass density,"[2]; 308.15 K, x1 = 0.3008",782.02 ± 7.8 kg/m3
same,viscosity,"[2]; 308.15 K, x1 = 0.3008",1.248 ± 0.016 mPa·s
same,mass density,"[2]; 308.15 K, x1 = 0.4037",776.69 ± 7.8 kg/m3
same,viscosity,"[2]; 308.15 K, x1 = 0.4037",1.058 ± 0.014 mPa·s
same,mass density,"[2]; 308.15 K, x1 = 0.5066",771.86 ± 7.7 kg/m3
same,viscosity,"[2]; 308.15 K, x1 = 0.5066",0.9138 ± 0.012 mPa·s
same,mass density,"[2]; 308.15 K, x1 = 0.6052",767.64 ± 7.7 kg/m3
same,viscosity,"[2]; 308.15 K, x1 = 0.6052",0.821 ± 0.011 mPa·s
same,mass density,"[2]; 308.15 K, x1 = 0.7038",763.92 ± 7.7 kg/m3
same,viscosity,"[2]; 308.15 K, x1 = 0.7038",0.729 ± 0.01 mPa·s
same,mass density,"[2]; 308.15 K, x1 = 0.8025",760.54 ± 7.6 kg/m3
same,viscosity,"[2]; 308.15 K, x1 = 0.8025",0.6738 ± 0.0095 mPa·s
same,mass density,"[2]; 308.15 K, x1 = 0.9011",757.75 ± 7.6 kg/m3
same,viscosity,"[2]; 308.15 K, x1 = 0.9011",0.6189 ± 0.0088 mPa·s
same,mass density,"[2]; 308.15 K, x1 = 1",756.3 ± 7.6 kg/m3
same,viscosity,"[2]; 308.15 K, x1 = 1",0.5902 ± 0.0085 mPa·s
